The target in one assay is Tubulin (Bos taurus, UniProt Q6B856+Q862L2+Q862F3). Briefly: Inhibition of bovine brain tubulin polymerization measured every 1 min for 60 mins by turbidimetry based microplate reader analysis.
The next assay has as its system COLO 205. Briefly: Antiproliferative activity against human COLO205 cells assessed as reduction in cell viability by MTT assay. Format: functional, cell-based.
The test system of the next assay is HCT-116. Briefly: Antiproliferative activity against human HCT116 cells assessed as reduction in cell viability by MTT assay. It is filed as functional, cell-based.

Consider 6 molecules from ChEMBL document CHEMBL4346757, “Synthesis and biological evaluation of 7-methoxy-1-(3,4,5-trimethoxyphenyl)-4,5-dihydro-2H-benzo[e]indazoles as new colchicine site inhibitors” (Bioorg Med Chem Lett, 2019).

Consider `COc1ccc(-c2[nH]nc3c2-c2cc(OC)c(OC)c(OC)c2CC3)cc1`, for which the values for the IC50 on Tubulin (read-out: IC50) and in the assay on COLO 205 were 6600 nM and 37 nM, respectively.

For `COc1ccc2c(c1)CCc1nn(-c3ccccc3)c(-c3cc(OC)c(OC)c(OC)c3)c1-2`, the IC50 in the assay with HCT-116 is 5240 nM; against Tubulin, > 10000 nM; with COLO 205 it was > 10000 nM.

For the molecule `COc1ccc2c(c1)CCc1nn(CCO)c(-c3cc(OC)c(OC)c(OC)c3)c1-2`, the concentration for half-maximal inhibition (IC50) was 1200 nM in the assay on HCT-116, > 10000 nM against Tubulin and 560 nM with COLO 205.

Regarding `COc1ccc2c(c1)CCc1nn(C)c(-c3cc(OC)c(OC)c(OC)c3)c1-2`, the IC50 stood at 1 nM with HCT-116, 1500 nM on Tubulin and 19 nM with COLO 205.

As for `CCOC(=O)Cn1nc2c(c1-c1cc(OC)c(OC)c(OC)c1)-c1ccc(OC)cc1CC2`, the IC50 is > 10000 nM with HCT-116, > 10000 nM against Tubulin and 8240 nM with COLO 205.

For the molecule `COc1ccc(/C=C\c2cc(OC)c(OC)c(OC)c2)cc1O` [COMBRETASTATIN A4], the IC50 with HCT-116 and in the assay with COLO 205 was 1 nM throughout.

As usually defined, the IC50 is the point on the concentration scale where inhibition reaches its midpoint.
